Test results: BindingDB's records for doi:10.1016/j.bmcl.2017.12.053 (n/a, 2018)

Experiments:
[1] = Inhibition of 20s immunoproteasome beta5 chymotrypsin-like activity in human spleen using Suc-Leu-Leu-Val-Tyr-AMC as substrate after 10 mins by fluorescence assay
[2] = Inhibition of 20s immunoproteasome beta1 caspase-like activity in human spleen using Ac-Pro-Ala-Leu-AMC as substrate after 10 mins by fluorescence assay
[3] = Inhibition of 20s constitutive proteasome beta1 caspase-like activity in human erythrocytes using Z-Leu-Leu-Glu-AMC as substrate after 10 mins by fluorescence assay
[4] = Inhibition of 20s immunoproteasome beta2 trypsin-like activity in human spleen using Boc-Leu-Arg-Arg-AMC as substrate after 10 mins by fluorescence assay
[5] = Inhibition of 20s constitutive proteasome beta2 trypsin-like activity in human erythrocytes using Boc-Leu-Arg-Arg-AMC as substrate after 10 mins by fluorescence assay

Ki [1]	Ki [2]	Ki [3]	Ki [4]	Ki [5]	Structure (SMILES)
2.35 µM	6.53 µM	–	–	–	COc1ccc(/C=C2\NC(=S)N(c3ccccc3)C2=O)cc1O
–	–	9.64 µM	5.57 µM	–	O=C1/C(=C/c2ccc(Oc3ccccc3)cc2)NC(=S)N1c1cccc2ccccc12
–	–	–	4.38 µM	20 µM	CSc1ccc(/C=C2\NC(=S)N(c3ccccc3)C2=O)cc1
10.9 µM	–	–	–	–	COc1ccc(/C=C2\NC(=S)N(c3ccccc3)C2=O)cc1
2.01 µM	2.64 µM	–	–	–	COc1ccc(/C=C2\NC(=S)N(c3ccccc3)C2=O)cc1OC
11.5 µM	–	–	6.71 µM	–	COc1cc(/C=C2\NC(=S)N(c3ccccc3)C2=O)ccc1O
